Laboratory results from BindingDB's records for doi:10.1021/acs.jmedchem.8b01821 (Rheinische Friedrich-Wilhelms-University of Bonn, 2019).

Assays:
[1] = Reversal of ABCG2-mediated multidrug resistance in human MCF-7/MX cells assessed as potentiation of SN-38-induced cytotoxicity incubated for 72 hrs by MTT assay
[2] = Reversal of ABCC1-mediated multidrug resistance in human H69AR cells assessed as potentiation of daunorubicin-induced cytotoxicity incubated for 72 hrs by MTT assay
[3] = Reversal of ABCB1-mediated multidrug resistance in human A2780/ADR cells assessed as potentiation of daunorubicin-induced cytotoxicity incubated for 72 hrs by MTT assay
[4] = Reversal of ABCG2 (unknown origin)-mediated multidrug resistance in MDCK2 cells co-expressing BCRP (unknown origin) assessed as potentiation of SN-38-induced cytotoxicity incubated for 72 hrs by MTT assay
[5] = Reversal of ABCB1 (unknown origin)-mediated multidrug resistance in MDCK2 cells co-expressing MDR1 (unknown origin) assessed as potentiation of daunorubicin-induced cytotoxicity incubated for 72 hrs by MTT assay
[6] = Reversal of ABCC1 (unknown origin)-mediated multidrug resistance in MDCK2 cells co-expressing MRP1 (unknown origin) assessed as potentiation of daunorubicin-induced cytotoxicity incubated for 72 hrs by MTT assay

Molecule `CC1CCc2c(sc3nc(-c4cccnc4)nc(N4CCN(C(C(N)=O)c5ccccc5)CC4)c23)C1` (stereo unspecified) has an EC50 [1] of 2730 nM, an EC50 [2] of 2690 nM and an EC50 [3] of 748 nM. It also gave an EC50 [4] of 1310 nM, an EC50 [5] of 361 nM and an EC50 [6] of 728 nM.
